This passage reports Final product mass and Relative fluorescence reading results from patent publication US20260365690A1, “COMPOUND FOR RNA CAPPING AND USE THEREOF” (GUANGZHOU HENOVCOM BIOSCIENCE CO., LTD., priority 2022, published 2026).

One assay concerns mRNA. As to the kind of experiment: mRNA synthesis by in vitro transcription (co-transcriptional capping), final product mass. The settings on record: obtained from 20 μL mRNA synthesis reaction system; T7 RNA Polymerase; cap analog 4 mM; 37 °C, 2 to 3 hours. The assay is classed as biochemical. How it is done:
1) The plasmids were linearized and the DNA templates were purified.
2) The mRNA was synthesized by in vitro transcription, using 11 cap structures of the present disclosure, positive control CleanCap®AG (3′OMe) (Trilink, N-7413), negative control (uncapped mRNA) and blank control (DNase/RNase-Free water), respectively.
The reaction was carried out at 37 °C for 2 to 3 hours. TURBO DNase digestion was carried out for 15 minutes. The mRNA was precipitated by LiC for 30 min or more or overnight, and the mRNA precipitate was washed with 75% ethanol, dried briefly to evaporate the ethanol, and the mRNA was redissolved with RNase-Free water.
3) The transcription product was purified, and the reaction yield was calculated to provide the test results of some compounds, as shown in Table 2.

The next assay relates to HEK293T cells. As to the kind of experiment: Expression efficiency of capped luciferase mRNAs in HEK293T cells. The assay is classed as cell-based. The note with it: 6 h after transfection of capped luciferase mRNA into HEK293T cells; ratio to N-7413 (= 1). As to the method:
2. Evaluation of Expression Efficiency of Different Capped Luciferase mRNAs in HEK293T Cells
1) HNE293T cells were cultured in DMEM medium containing 10% FBS and penicillin/streptomycin at 37 °C and 5% CO2.
2) The cultured HEK293T cells were spread in a 96-well plate with 1.25×10^4 cells per well.
3) After the cells completely adhered to the wall, 0.5 μg of a mixture of mRNA sample and Polyplus jetMESSENGER was added to each well of cells, and cultured at 37 °C and 5% CO2 for 6 hours.
4) The growth medium was removed from the cells to be tested and the cells were rinsed with PBS. After centrifugation to remove PBS, 50 μL of 1× lysis buffer was added thereto, and cells and all liquid were transferred to a microcentrifuge tube, and then centrifuged at 12000×g and 4 °C for 2 min.
5) The supernatant was transferred to a new tube. Fluorescence readings were detected using the ONE-Glo Luciferase Assay System Kit.
3. All compounds, N-7413, negative control and blank control were tested under the same conditions, and some experimental results in the test results are shown in Table 5.
The relative fluorescence reading results (6 h) after transfection of capped mRNA into 293T cells are now provided, as shown in Table 5. It can be seen from the FIGURE that the mRNA capped by the compound of the present disclosure has a high expression level, and some cap structures can enable higher expression efficiency of mRNA compared to N-7413.

In the assay on mRNA, `CO[C@@H]1[C@H](CC(=O)NC[C@H]2O[C@@H](n3cnc4c(=O)[nH]c(N)nc43)[C@H](O)[C@@H]2O)[C@@H](COP(=O)(O)OP(=O)(O)OP(=O)(O)OC[C@H]2O[C@@H](n3c[n+](C)c4c(=O)[nH]c(N)nc43)[C@H](O)[C@@H]2C)O[C@H]1n1cnc2c(N)ncnc21` [Compound 59] came in with a Final product mass of 91 µg. The Relative fluorescence reading with HEK293T cells amounted to 0.71.

Take `CO[C@@H]1[C@H](OP(=O)(O)OC[C@H]2O[C@@H](n3cnc4c(=O)[nH]c(N)nc43)[C@H](O)[C@@H]2O)[C@@H](COP(=O)(O)OP(=O)(O)CP(=O)(O)OC[C@H]2O[C@@H](n3c[n+](C)c4c(=O)[nH]c(N)nc43)[C@H](O)[C@@H]2CCF)O[C@H]1n1cnc2c(N)ncnc21` [Compound 103]: in the assay with mRNA, the Final product mass worked out at 94 µg. The Relative fluorescence reading in the assay on HEK293T cells stood at 1.45.

For the compound `CNC(=O)[C@H]1[C@@H](O)[C@H](n2c[n+](C)c3c(=O)[nH]c(N)nc32)O[C@@H]1COP(=O)(O)OP(=O)(O)OP(=O)(O)OC[C@H]1O[C@@H](n2cnc3c(N)ncnc32)[C@H](OC)[C@@H]1OP(=O)(O)OC[C@H]1O[C@@H](n2cnc3c(=O)[nH]c(N)nc32)[C@H](O)[C@@H]1O` [Compound 191], the Final product mass in the assay on mRNA worked out at 100 µg. In addition, in the assay on HEK293T cells, the Relative fluorescence reading was determined as 1.68.

In the case of `CCCCCCNC(=O)[C@H]1[C@@H](O)[C@H](n2c[n+](C)c3c(=O)[nH]c(N)nc32)O[C@@H]1COP(=O)(O)OP(=O)(O)OP(=O)(O)OC[C@H]1O[C@@H](n2cnc3c(N)ncnc32)[C@H](OC)[C@@H]1OP(=O)(O)OC[C@H]1O[C@@H](n2cnc3c(=O)[nH]c(N)nc32)[C@H](O)[C@@H]1O` [Compound 205], the Final product mass in the assay on mRNA stood at 98 µg. Further, the Relative fluorescence reading with HEK293T cells worked out at 1.52.

As to `CCC(=O)N[C@H]1[C@@H](O)[C@H](n2c[n+](C)c3c(=O)[nH]c(N)nc32)O[C@@H]1COP(=O)(O)OP(=O)(O)OP(=O)(O)OC[C@H]1O[C@@H](n2cnc3c(N)ncnc32)[C@H](OC)[C@@H]1OP(=O)(O)OC[C@H]1O[C@@H](n2cnc3c(=O)[nH]c(N)nc32)[C@H](O)[C@@H]1O` [Compound 291], the Final product mass in the assay with mRNA turned out to be 106 µg. Further, the Relative fluorescence reading in the assay with HEK293T cells was determined as 1.60.

In the assay with mRNA, `CO[C@@H]1[C@H](OP(=O)(O)OC[C@H]2O[C@@H](n3cnc4c(=O)[nH]c(N)nc43)[C@H](O)[C@@H]2O)[C@@H](COP(=O)(O)OP(=O)(O)OP(=O)(O)OC[C@H]2O[C@@H](n3c[n+](C)c4c(=O)[nH]c(N)nc43)[C@H](O)[C@@H]2NC(=O)C(C)C)O[C@H]1n1cnc2c(N)ncnc21` [Compound 293] returned a Final product mass of 103 µg. Moreover, the Relative fluorescence reading in the assay with HEK293T cells came to 1.68.

For `CO[C@@H]1[C@H](OP(=O)(O)OC[C@H]2O[C@@H](n3cnc4c(=O)[nH]c(N)nc43)[C@H](O)[C@@H]2O)[C@@H](COP(=O)(O)OP(=O)(O)OP(=O)(O)OC[C@H]2O[C@@H](n3c[n+](C)c4c(=O)[nH]c(N)nc43)[C@H](O)[C@@H]2NC(=O)c2ccccc2)O[C@H]1n1cnc2c(N)ncnc21` [Compound 297], the Final product mass in the assay with mRNA stood at 110 µg. The Relative fluorescence reading in the assay on HEK293T cells amounted to 1.79.

In the case of `CO[C@@H]1[C@H](OP(=O)(O)OC[C@H]2O[C@@H](n3cnc4c(=O)[nH]c(N)nc43)[C@H](O)[C@@H]2O)[C@@H](COP(=O)(O)OP(=O)(O)OP(=O)(O)OC[C@H]2O[C@@H](n3c[n+](C)c4c(=O)[nH]c(N)nc43)[C@H](O)[C@@H]2N=[N+]=[N-])O[C@H]1n1cnc2c(N)ncnc21` [Compound 399], the Final product mass in the assay with mRNA stood at 117 µg. Also, in the assay on HEK293T cells, the Relative fluorescence reading came to 1.51.

As to `C/C=C/C[C@H]1[C@@H](O)[C@H](n2c[n+](C)c3c(=O)[nH]c(N)nc32)O[C@@H]1COP(=O)(O)OP(=O)(O)OP(=O)(O)OC[C@H]1O[C@@H](n2cnc3c(N)ncnc32)[C@H](OC)[C@@H]1OP(=O)([O-])OC[C@H]1O[C@@H](n2cnc3c(=O)[nH]c(N)nc32)[C@H](O)[C@@H]1O` [Compound 711], the Final product mass in the assay with mRNA amounted to 106 µg. Also, in the assay with HEK293T cells, the Relative fluorescence reading was found to be 1.86.

Compound `C=CC[n+]1cn([C@@H]2O[C@H](COP(=O)(O)OP(=O)(O)OP(=O)(O)OC[C@H]3O[C@@H](n4cnc5c(N)ncnc54)[C@H](OC)[C@@H]3OP(=O)(O)OC[C@H]3O[C@@H](n4cnc5c(=O)[nH]c(N)nc54)[C@H](O)[C@@H]3O)[C@@H](CC)[C@H]2O)c2nc(N)[nH]c(=O)c21` [Compound 716] returned a Final product mass in the assay on mRNA of 103 µg. Also, the Relative fluorescence reading in the assay with HEK293T cells stood at 1.50.

Regarding `CC[C@H]1[C@@H](O)[C@H](n2c[n+](C)c3c(=O)[nH]c(N)nc32)O[C@@H]1COP(=O)(O)OP(O)(=S)OP(=O)(O)OC[C@H]1O[C@@H](n2cnc3c(N)ncnc32)[C@H](OC)[C@@H]1OP(=O)([O-])OC[C@H]1O[C@@H](n2cnc3c(=O)[nH]c(N)nc32)[C@H](O)[C@@H]1O` (stereo partly shown) [Compound 718], in the assay on mRNA, the Final product mass was 106 µg. For the same compound, the Relative fluorescence reading in the assay with HEK293T cells is recorded as 1.66.

The compound `CCC[C@H]1[C@@H](O)[C@H](n2c[n+](C)c3c(=O)[nH]c(N)nc32)O[C@@H]1COP(=O)(O)OP(=O)(O)OP(=O)(O)OC[C@H]1O[C@@H](n2cnc3c(NC)ncnc32)[C@H](OC)[C@@H]1OP(=O)(O)OC[C@H]1O[C@@H](n2cnc3c(=O)[nH]c(N)nc32)[C@H](O)[C@@H]1O` [Compound 719] displayed a Final product mass with mRNA of 97 µg. The Relative fluorescence reading with HEK293T cells worked out at 1.69.

In the assay on mRNA, `CO[C@@H]1[C@H](OP(=O)(O)OC[C@H]2O[C@@H](n3cnc4c(=O)[nH]c(N)nc43)[C@H](O)[C@@H]2O)[C@@H](COP(=O)(O)OP(=O)(O)OP(=O)(O)OC[C@H]2O[C@@H](n3c[n+](C)c4c(=O)[nH]c(N)nc43)[C@H](O)[C@@H]2NC(=O)C(C)(C)C)O[C@H]1n1cnc2c(N)ncnc21` [Compound 722] came in with a Final product mass of 103 µg. For the same compound, the Relative fluorescence reading in the assay on HEK293T cells was 1.74.

In turn, `CO[C@@H]1[C@H](OP(=O)([O-])OC[C@H]2O[C@@H](n3cnc4c(=O)[nH]c(N)nc43)[C@H](O)[C@@H]2O)[C@@H](COP(=O)(O)OP(=O)(O)OP(=O)(O)OC[C@H]2O[C@@H](n3c[n+](C)c4c(=O)[nH]c(N)nc43)[C@H](O)[C@@H]2OC)O[C@H]1n1cnc2c(N)ncnc21` [Compound N-7413, reference compound] gave a Final product mass in the assay on mRNA of 114 µg. The Relative fluorescence reading in the assay with HEK293T cells was 1.00.
